The record followed here is BindingDB's records for doi:10.1124/jpet.104.071282 (Neurocrine Biosciences, 2004).

This assay addresses Gamma-aminobutyric acid receptor subunit alpha-1 (Rattus norvegicus, UniProt P62813).

Where “and” joins values, the source holds several entries; their conditions need not be identical. Equal values may be shown once.

Chain of Gamma-aminobutyric acid receptor subunit alpha-1 (P62813 whole entry): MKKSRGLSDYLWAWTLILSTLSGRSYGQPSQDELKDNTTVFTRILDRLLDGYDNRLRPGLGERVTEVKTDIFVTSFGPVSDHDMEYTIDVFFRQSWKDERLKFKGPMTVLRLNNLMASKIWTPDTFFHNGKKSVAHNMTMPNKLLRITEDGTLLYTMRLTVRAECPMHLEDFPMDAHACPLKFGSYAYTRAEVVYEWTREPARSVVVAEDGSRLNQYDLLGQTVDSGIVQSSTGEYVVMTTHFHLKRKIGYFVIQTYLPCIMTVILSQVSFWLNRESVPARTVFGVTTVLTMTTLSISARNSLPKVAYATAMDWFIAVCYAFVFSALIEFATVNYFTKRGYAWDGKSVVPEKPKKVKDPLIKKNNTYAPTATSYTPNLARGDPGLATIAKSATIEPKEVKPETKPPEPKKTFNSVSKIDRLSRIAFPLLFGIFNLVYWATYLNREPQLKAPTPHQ

A word on the Ki: it is a dissociation constant, usually derived from enzyme kinetics or from competition with a known ligand. Read a low Ki as tighter binding. Take `Cc1nnc2n1-c1ccc(Cl)cc1C(c1ccccc1Cl)=NC2` [Halcion]: the Ki was 0.34 nM and 0.31 nM and 0.55 nM and 0.45 nM.
